Laboratory results published in patent US20260258420A1, “COMPOSITIONS AND METHODS FOR THE TREATMENT OF HUMAN PAPILLOMAVIRUS-DRIVEN CANCERS” (priority 2023, published 2026).

Experiments:
[1] = test system: 17 HPV-negative HNSCC and cervical squamous cancer cell lines; test: High-throughput drug screen (HTDS), cell death by AOC_LD, HPV-negative cell lines; type: cell-based
Procedure: The concordance correlation coefficient was computed to assess the reproducibility of the normalized growth rates of the 2 replicates. […] A chi-square test was applied to compare drug classification and the cluster membership. The Fisher exact test was applied to compare mutations status (wild-type and mutant) and drugs' response data (sensitive and resistant).
The effects of 864 unique drugs from 51 classes was tested in 16 HPV-positive and 17 HPV-negative HNSCC and cervical squamous cancer cell lines (Table 2) that were characterized previously (Kaiu, et al., Oncotarget 2017; 8(49):86369-83).

[2] = test system: HPV-positive cell lines (CASKI and SIHA); test: Apoptosis immunoblot after BUB1B or MAD2L1 siRNA; type: cell-based; details: 300 nmol/L, 24 hours
Procedure: FIG. 5A, two HPV-positive cell lines (CASKI and SIHA) were transfected with BUB1B or MAD2L1 siRNA and then treated for 24 hours with 300 nmol/L alisertib before lysis and immunoblotting with the indicated antibodies. FIG. 5B, TRIP13 was transiently overexpressed (Ox) in 2 HPV-positive cell lines that were treated for 24 hours with 300 nmol/L alisertib before lysis and immunoblotting for the indicated proteins. FIG. 5C, HPV-positive cell lines with TRIP13 overexpression were treated with 300 nmol/L alisertib for 32 hours and then stained for annexin V-PE/7AAD staining and analysis with flow cytometry to measure apoptosis. The bar graph represents the ratio of apoptosis (late plus early) among different groups. Values are the means±the standard deviations for 3 independent experiments. ** P≤0.01; *** P≤0.001; unpaired, 2-tailed Student t-test. FIG. 5D, HN31 (left panel) and MDA886LN (right panel) cells expressing RB1 or control shRNA were transfected with a plasmid for TRIP13. After 24 hours, cells were treated with 300 nmol/L alisertib and then lysed for immunoblotting. Cl, cleaved; Fl, full length; GAPDH, glyceraldehyde 3-phosphate dehydrogenase. […]

[3] = test system: HN31 and MDA886LN cells expressing RB1 shRNA; test: Apoptosis with TRIP13 overexpression, RB1-knockdown HPV-negative cells; type: cell-based; details: 300 nmol/L
Procedure: FIG. 5A, two HPV-positive cell lines (CASKI and SIHA) were transfected with BUB1B or MAD2L1 siRNA and then treated for 24 hours with 300 nmol/L alisertib before lysis and immunoblotting with the indicated antibodies. FIG. 5B, TRIP13 was transiently overexpressed (Ox) in 2 HPV-positive cell lines that were treated for 24 hours with 300 nmol/L alisertib before lysis and immunoblotting for the indicated proteins. FIG. 5C, HPV-positive cell lines with TRIP13 overexpression were treated with 300 nmol/L alisertib for 32 hours and then stained for annexin V-PE/7AAD staining and analysis with flow cytometry to measure apoptosis. The bar graph represents the ratio of apoptosis (late plus early) among different groups. Values are the means±the standard deviations for 3 independent experiments. ** P≤0.01; *** P≤0.001; unpaired, 2-tailed Student t-test. FIG. 5D, HN31 (left panel) and MDA886LN (right panel) cells expressing RB1 or control shRNA were transfected with a plasmid for TRIP13. After 24 hours, cells were treated with 300 nmol/L alisertib and then lysed for immunoblotting. Cl, cleaved; Fl, full length; GAPDH, glyceraldehyde 3-phosphate dehydrogenase.
In normal cells, prolonged mitosis resulting from Mad2 overexpression can lead to G1 arrest or mitotic cell death, so it is unclear why Mad2 overexpression is tolerated in HPV-positive cancers. […]

[4] = test system: PDX tumors HOSC144, HOSC19, HOSC156 (p16-positive oropharynx cancer); test: In vivo tumor growth study, HPV-positive PDX models; design: species or system nude mice
Procedure: PDX tumors HOSC144 (FIG. 3A, FIG. 3E, FIG. 3F), HOSC19 (FIG. 3B), and HOSC156 (FIG. 3C) were implanted into the flanks of nude mice. After engraftment, mice were randomized and assigned into 1 of 2 treatment groups: vehicle (β-cyclodextrin, n=8) or alisertib (10 mg/kg, n=8). Mice were treated for 3 weeks by daily oral gavage. Tumor size was measured twice a week. FIG. 3A, FIG. 3B, and FIG. 3C show in vivo tumor growth curves for individual mice (left 3 panels). Survival (right panels) was measured using the Kaplan-Meier method. In FIG. 3D, HPV-negative UMSCC22A cells were injected subcutaneously (3×10^6 cells) on the right flanks of the mice. Once the tumor volume reached ≥60 mm^3, mice were randomized into treatment groups. Mice were treated with vehicle or 10 mg/kg alisertib by oral gavage for 5 days per week for 21 days. Tumor size was measured twice a week. […] The Ki67(%) was calculated as the ratio of proliferative cells to total cells in each field, using five random fields. […] The apoptotic (%) was calculated as the ratio of apoptotic cells to total cells in each field, using five random fields in HOSC144 PDX tumors after 8 or 21 days of treatment with either vehicle or alisertib. ** P≤0.01; *** P≤0.001. Bars, 100 μM.
The in vivo tumor growth study was performed in accordance with the Guide for the Care and Use of Laboratory Animals of the National Institutes of Health and approved by MD Anderson's Institutional Animal Care and Use Committee. The PDX models were generated as described previously (Peng, et al., J Transl Med 2013; 11:198), and subjected to qPCR as described to determine the HPV type (Chaturvedi, et al., The Journal of Infectious Diseases 2014; 210(3):441-7; Fakhry, et al, JAMA Oncol 2019; 5(7):985-92). Briefly, tumor tissue was cut into small fragments (5-6 mm) and implanted subcutaneously into the flanks of nude mice. The skin incisions were closed with skin clips that were removed after 10 to 15 days. Once tumors reached an average of 150 to 300 mm^3, the mice were randomized into either vehicle group or alisertib group. Alisertib (Takeda Pharmaceuticals, Lexington, MA; 10 mg/kg in 10% β-cyclodextrin) was administered via oral gavage once daily on a weekly schedule of 6 days on and 1 day off. Tumors were monitored daily, and tumor volume (length×width^2×0.5) was evaluated twice per week with digital calipers. Mice were euthanized when tumors reached 2000 mm^3. The endpoint for the survival studies was the tumor burden. Survival was measured using the Kaplan-Meier method. Survival curve analysis was performed with GraphPad Prism software version 9 (RRID:SCR_002798).
To test the effect of Aurora kinase inhibition in vivo, three patient-derived xenograft (PDX) models that were derived from patients with p16-positive oropharynx cancer [HOSC144 (HPV16, HPV52), HOSC19 (HPV18, HPV59), and HOSC 156 (HPV18)], were implanted in nude mice. A low dose of alisertib (10 mg/kg) was administered continuously for 3 weeks. […] In addition, an HPV-negative cell line with high Rb protein levels was also tested and it was observed that it was resistant to alisertib treatment (FIG. 3D).

[5] = HOSC144 tumors, days 8 and 21, vs vehicle

COc1cc(Nc2ncc3c(n2)-c2ccc(Cl)cc2C(c2c(F)cccc2OC)=NC3)ccc1C(=O)O [ALISERTIB, alisertib]
HPV negative Resistant (number of cell lines) ([1]; resistant = AOC_LD 0): 16
HPV negative Sensitive (number of cell lines) ([1]; sensitive = AOC_LD greater than 0): 1
apoptosis with reduced levels of Mad2 or BUB1B [2]: rescued the cells from alisertib-induced apoptosis
apoptosis with TRIP13 overexpression [3]: reduced apoptosis
response after treatment was stopped ([4]; 10 mg/kg oral gavage, 3 weeks): sustained response
tumor growth ([4]; 10 mg/kg oral gavage, 3 weeks): clear evidence of tumor regression
survival duration ([4]; 10 mg/kg oral gavage, 3 weeks, Kaplan-Meier): concordant increase in survival duration
Ki67 staining in tumors [4, 5]: significantly lower levels of Ki67 staining
cleaved caspase-3 in tumors [4, 5]: increased levels of cleaved caspase-3
